The nature of series [1]: Solubility in water and aqueous solutions. The series is classed as physicochemical. Particulars: aqueous solution at pH 6.0 containing 0.5% (w/w) of macrogol 15-hydroxystearate (Kolliphor® HS15).
The conditions of series [2]: Impagnatiello et al., cited from earlier work.

Regarding `CCNC(=O)CCC/C=C\C[C@@H]1[C@@H](/C=C/[C@H](CCc2ccccc2)OC(=O)CCCCCO[N+](=O)[O-])[C@H](O)C[C@@H]1O` [NCX 470, Hexanoic acid, 6-(nitrooxy)-, (1S,2E)-3-[(1R,2R,3S,5R)-2-[(2Z)-7-(ethylamino)-7-oxo-2-hepten-1-yl]-3,5-dihydroxycyclopentyl]-1-(2-phenylethyl)-2-propen-1-yl ester], in series [1], the solubility is listed as 0.070 % (w/w). Moreover, the “IOP-lowering efficacy versus equimolar doses of bimatoprost” value in series [2] (British Journal of Pharmacology (2018), vehicle 0.25% Tween 80, 0.02% BAK, 2% glycerine, 0.1% EDTA) was “greater IOP-lowering efficacy”. The “intra ocular pressure (IOP)-lowering agent” value in series [2] (Invest Ophthalmol Vis Sci. 2015) was “effective”.

The values above are taken from US12186295B2, “Ophthalmic compositions containing a nitric oxide releasing prostamide” (NICOX S.A., priority 2018, dated 2025).
